Biological target: T1, full length active recombinant SYK enzyme (Homo sapiens, UniProt P43405)
T1 construct: full length active recombinant SYK enzyme (Millipore, Calif.); purchased Millipore
Test: Inhibition of Syk tyrosine phosphorylation activity (LANCE TR-FRET kinase assay)
Format: biochemical

| IC50 | SMILES |
| --- | --- |
| 10 to 100 nM | CCn1ccc2c(Nc3nc(N[C@@H]4CCCC(F)(F)[C@@H]4N)c(F)cc3C(N)=O)cccc21 [Example 390, 6-((1R,2R)-2-amino-3,3-difluorocyclohexylamino)-2-(1-ethyl-1H-indol-4-ylamino)-5-fluoronicotinamide] |
| 10 to 100 nM | CC(C)n1ccc2c(Nc3nc(N[C@@H]4CCCC(F)(F)[C@@H]4N)c(F)cc3C(N)=O)cccc21 [Example 391, 6-((1R,2R)-2-amino-3,3-difluorocyclohexylamino)-5-fluoro-2-(1-isopropyl-1H-indol-4-ylamino)nicotinamide] |
| 100 to 1000 nM | CC(C)Cn1ccc2c(Nc3nc(N[C@@H]4CCCC(F)(F)[C@@H]4N)c(F)cc3C(N)=O)cccc21 [Example 392, 6-((1R,2R)-2-amino-3,3-difluorocyclohexylamino)-5-fluoro-2-(1-isobutyl-1H-indol-4-ylamino)nicotinamide] |
| 1 to 10 nM | NC(=O)c1cc(F)c(N[C@@H]2CCCC[C@@H]2N)nc1Nc1csc2ncccc12 [Example 393] |
| 10 to 100 nM | NC(=O)c1cc(F)c(N[C@@H]2CCCC[C@@H]2N)nc1Nc1csc2ccncc12 [Example 394, 6-((1R,2S)-2-aminocyclohexylamino)-5-fluoro-2-(thieno[3,2-c]pyridin-3-ylamino)nicotinamide] |

Second part, the compound before the results:

| SMILES | IC50 |
| --- | --- |
| Cc1cccc(Nc2nc(NC[C@@H](N)CC(F)F)c(F)cc2C(N)=O)c1 [Example 380, (S)-2-(m-toluidino)-6-(2-amino-4,4-difluorobutylamino)-5-fluoronicotinamide] | 10 to 100 nM |
| Cc1ccc(Nc2nc(NC[C@@H](N)CC(F)F)c(F)cc2C(N)=O)cc1 [Example 381, (S)-2-(p-toluidino)-6-(2-amino-4,4-difluorobutylamino)-5-fluoronicotinamide] | 100 to 1000 nM |
| NC(=O)c1cc(F)c(NC[C@@H](N)CC(F)F)nc1Nc1cncc(F)c1 [Example 382, (S)-6-(2-amino-4,4-difluorobutylamino)-5-fluoro-2-(5-fluoropyridin-3-ylamino)nicotinamide] | 100 to 1000 nM |
| NC(=O)c1ccc(N[C@@H]2CCNC2)nc1Nc1ccc2ncccc2c1 [Example 383, (R)-6-(pyrrolidin-3-ylamino)-2-(quinolin-6-ylamino)nicotinamide] | > 1000 nM |
| NC(=O)c1cc(F)c(N[C@@H]2CCOC[C@@H]2N)nc1Nc1ccc2ncsc2c1 [Example 384, 6-((3R,4R)-3-aminotetrahydro-2H-pyran-4-ylamino)-2-(benzo[d]thiazol-6-ylamino)-5-fluoronicotinamide] | 1 to 10 nM |
| Cc1cccc(Nc2nc(N[C@@H]3CCOC[C@@H]3N)c(F)cc2C(N)=O)c1 [Example 385, 6-((3R,4R)-3-aminotetrahydro-2H-pyran-4-ylamino)-5-fluoro-2-(m-tolylamino)nicotinamide] | 1 to 10 nM |
| NC(=O)c1cc(F)c(N[C@@H]2CCOC[C@@H]2N)nc1Nc1cccc(Cl)c1 [Example 386, 6-((3R,4R)-3-aminotetrahydro-2H-pyran-4-ylamino)-2-(3-chlorophenylamino)-5-fluoronicotinamide] | 1 to 10 nM |
| Cn1ncc2c(Nc3nc(N[C@@H]4CCCC(F)(F)[C@@H]4N)c(F)cc3C(N)=O)cccc21 [Example 387, 6-((1R,2R)-2-amino-3,3-difluorocyclohexylamino)-5-fluoro-2-(1-methyl-1H-indazol-4-ylamino)nicotinamide] | 100 to 1000 nM |
| NC(=O)c1cc(F)c(N[C@H]2[C@@H](N)CCCC2(F)F)nc1Nc1cccc(Cl)c1 [Example 388, 6-((1S,6S)-6-amino-2,2-difluorocyclohexylamino)-2-(3-chlorophenylamino)-5-fluoronicotinamide] | 1 to 10 nM |
| Cn1ncc2c(Nc3nc(N[C@H]4[C@@H](N)CCCC4(F)F)c(F)cc3C(N)=O)cccc21 [Example 389, 6-((1S,6S)-6-amino-2,2-difluorocyclohexylamino)-5-fluoro-2-(1-methyl-1H-indazol-4-ylamino)nicotinamide] | 1 to 10 nM |

Source: patent US8846928B2 (Portola Pharmaceuticals, Inc., priority 2010, dated 2014)
